Earlier results as cited in publication PMC11859340, “The Therapeutic Potential of Spirooxindoles in Cancer: A Focus on p53–MDM2 Modulation” (Pharmaceuticals, 2025).
Where two headings read alike, the source gives them in different places. Values belong to the molecule of their own block, whether it stands above or below them.

Assays:
[1] = tested on: HCT116 p53^−/−; parameters: method as in PMID 28800455; settings: read-out: IC50 against HCT116 p53^−/−
[2] = tested on: HCT116 p53^+/+; parameters: method as in PMID 28800455; settings: read-out: IC50 against HCT116 p53^+/+
[3] = tested on: HepG2 (liver); parameters: method as in PMID 30802707; settings: MTT; read-out: IC50 against HepG2
[4] = tested on: A2870T “ovarian”; parameters: method as in PMID 28027532; settings: MTT; read-out: IC50 against A2870T
[5] = tested on: HEK293T (embryonic kidney); parameters: method as in doi:10.1080/10426507.2020.1723590; settings: MTT; read-out: IC50 against HEK293T
[6] = tested on: PC-3 (prostate); parameters: method as in PMID 30802707; settings: MTT; read-out: IC50 against PC-3
[7] = parameters: method as in PMID 30508794; settings: MTT; read-out: IC50 against PC3
[8] = tested on: MCF7 “breast”; parameters: method as in PMID 28027532; settings: MTT; read-out: IC50 against MCF7
[9] = tested on: HCT116 (colon); parameters: method as in PMID 30508794; settings: MTT; read-out: IC50 against HCT116
[10] = tested on: A2870s; parameters: method as in PMID 28027532; settings: MTT; read-out: IC50 against A2870s
[11] = tested on: HCT116 “colon”; parameters: method as in PMID 28027532; settings: MTT; read-out: IC50 against HCT116
[12] = tested on: HCT116 (colon); parameters: method as in PMID 30802707; settings: MTT; read-out: IC50 against HCT116
[13] = tested on: HepG2 (liver); parameters: method as in PMID 30508794; settings: MTT; read-out: IC50 against HepG2
[14] = tested on: HeLa (cervical); parameters: method as in PMID 37935912; settings: SRB; read-out: IC50 against HeLa
[15] = tested on: A549 (lung); parameters: method as in doi:10.1080/10426507.2020.1723590; settings: MTT; read-out: IC50 against A549
[16] = tested on: VERO-B (normal) cells; settings: read-out: IC50 against VERO-B; MTT, normal cells
[17] = tested on: CT26; parameters: method as in PMID 28027532; settings: MTT; read-out: IC50 against CT26
[18] = tested on: A549 “lung”; parameters: method as in PMID 28027532; settings: MTT; read-out: IC50 against A549
[19] = tested on: H1975 “lung”; parameters: method as in PMID 28027532; settings: MTT; read-out: IC50 against H1975
[20] = tested on: tumor growth; parameters: method as in PMID 25618595; settings: 20 mg/kg body weight over 14 days
[21] = tested on: MD-MB-231; parameters: method as in PMID 25618595; settings: MTT; read-out: IC50 against MD-MB-231
[22] = tested on: MCF7; parameters: method as in PMID 25618595; settings: MTT; read-out: IC50 against MCF7
[23] = tested on: VERO; parameters: method as in PMID 25618595; settings: monkey kidney normal cell line; read-out: IC50 against VERO
[24] = tested on: HEK-293; parameters: method as in PMID 25618595; settings: human kidney normal cell line; read-out: IC50 against HEK-293
[25] = tested on: MCF7 “wild p53”; parameters: method as in PMID 37731691; settings: MTT; read-out: IC50 against MCF7
[26] = tested on: MDA-MB-231 “mutant p53”; parameters: method as in PMID 37731691; settings: MTT; read-out: IC50 against MDA-MB-231
[27] = tested on: MCF 10A; parameters: method as in PMID 37731691; settings: MTT; read-out: IC50 against MCF 10A
[28] = tested on: transplanted cancer (lung cancer); parameters: method as in PMID 32738990; settings: 100, 200, 400 mg/kg
[29] = tested on: MCF7; parameters: method as in PMID 29210587; settings: at 20 μM, MTT
[30] = tested on: MDM2; parameters: method as in PMID 29210587; settings: at 20 μM, HTRF method
[31] = tested on: ZR-75-1 (wild-type p53); parameters: method as in PMID 29210587; settings: at 20 μM, MTT
[32] = tested on: BT-474 (mutated-type p53); parameters: method as in PMID 29210587; settings: at 20 μM, MTT
[33] = tested on: HCT116^−/−; parameters: method as in PMID 34946727; settings: MTT; read-out: CC50 against HCT116^−/−
[34] = tested on: HCT116^+/+; parameters: method as in PMID 34946727; settings: MTT; read-out: CC50 against HCT116^+/+
[35] = tested on: SW620 (mutant p53); parameters: method as in PMID 24268795; settings: read-out: GI50 against SW620
[36] = tested on: HCT116 (p53^+/+); parameters: method as in PMID 24268795; settings: read-out: GI50 against HCT116 (p53^+/+)
[37] = tested on: HepG2 (hepatocellular wild p53 type); parameters: method as in PMID 24268795; settings: read-out: GI50 against HepG2
[38] = tested on: HCT116 (p53^−/−); parameters: method as in PMID 24268795; settings: read-out: GI50 against HCT116 (p53^−/−)
[39] = target: MDM2; parameters: method as in PMID 31047751; settings: fluorescence polarization assay; read-out: Ki, MDM2 inhibitory effect
[40] = tested on: lung A549; parameters: method as in PMID 31047751; settings: CCK-8
[41] = tested on: breast MCF7; parameters: method as in PMID 31047751; settings: CCK-8
[42] = tested on: colon HCT116; parameters: method as in PMID 31047751; settings: CCK-8
[43] = tested on: HCT116 (p53^+/+); parameters: method as in doi:10.1039/C5MD00450K; settings: read-out: GI50 against HCT116 (p53^+/+)
[44] = tested on: SW620 (colon, mutant p53); parameters: method as in doi:10.1039/C5MD00450K; settings: read-out: GI50 against SW620
[45] = tested on: HCT116 (p53^−/−); parameters: method as in doi:10.1039/C5MD00450K; settings: read-out: GI50 against HCT116 (p53^−/−)
[46] = tested on: HepG2 (liver, wild p53 type); parameters: method as in doi:10.1039/C5MD00450K; settings: read-out: GI50 against HepG2
[47] = tested on: p53; parameters: method as in PMID 37175323; settings: 22Rv1 and LNCaP, dose-dependent
[48] = tested on: MDM2; parameters: method as in PMID 37175323; settings: induction of protein degradation

- IC50 [1]: 14.2 ± 0.8 µM
- IC50 [2]: 13.1 ± 1 µM
SMILES: O=C1Nc2ccc(Br)cc2[C@]12[C@@H](c1ccccc1)C(c1ccccc1)=NN2c1ccccc1 [97 (R = 5-Br, R^1 = R^3 = H, R^2 = Ph)]

SMILES: N.N.[Cl][Pt][Cl] [cisplatin, reference compound]
- IC50 [3]: 5.5 ± 1 µM
- IC50 [4]: 27.3 µM
- IC50 [5]: 12.4 ± 3.9 µM
- IC50 [6]: 5 ± 0.5 µM
- IC50 [7]: 5 ± 0.56 µM
- IC50 [8]: 7.8 µM
- IC50 [9]: 12.6 ± 0.5 µM
- IC50 [10]: 20.9 µM
- IC50 [11]: 17.4 µM
- IC50 [12]: 12.6 ± 2 µM
- IC50 [13]: 5.5 ± 0.3 µM
- IC50 [14]: 2 ± 0.3 µM
- IC50 [15]: 44.1 ± 3.9 µM
- IC50 [16]: 5 ± 0.2 µM
- IC50 [17]: 23.7 µM
- IC50 [18]: 15.6 µM
- IC50 [19]: 9.7 µM

- IC50 [22]: 6.5 µM
- IC50 [23]: > 50 µM
- IC50 [24]: > 50 µM
SMILES: O=C(c1ccc(OCCN2CCCCC2)cc1)C1[C@H](c2ccccc2)[C@@H](c2ccccc2)NC12C(=O)Nc1ccc(Cl)cc12 (stereo partly drawn)
- tumor growth compared to the untreated control group [20]: reduction in tumor growth
- IC50 [21]: 3.7 µM

SMILES: O=C1C=CC(OCc2cn(CCN3C(=O)[C@]4(c5ccc(Br)cc53)[C@@H](c3ccccc3)C(c3ccccc3)=NN4c3ccccc3)nn2)(c2cc(=O)c3c(O)cc(O)cc3o2)C=C1 [105 (X = (CH2)2)]
- IC50 [25]: 2.92 µM
- IC50 [26]: 1.08 µM
- IC50 [27]: 4.56 µM

SMILES: CN1C(=O)C2(C(C#N)=C(N)Oc3cc4oc(-c5ccccc5)cc(=O)c4c(O)c32)c2cc(Br)ccc21 (stereo not drawn) [compound 128]
- transplanted cancer in mice [28]: Inhibition of transplanted cancer in mice

SMILES: C[C@H]1CN(C(=O)OC(C)(C)C)[C@@]2(C(=O)Nc3cc(Cl)ccc32)[C@@H]([N+](=O)[O-])[C@@H]1c1ccc(Cl)cc1
- % inhibition, MCF7 [29]: 93.03%
- inhibitory activity against MDM2 [30]: 84.86
- % inhibition, ZR-75-1 [31]: 82.28%
- % inhibition, BT-474 [32]: 50.00%

SMILES: COc1ccc(N2C(=O)[C@@]3(CN(C)C[C@@]34C(=O)Nc3ccc(Cl)cc34)NC2=S)cc1 [84 (X = S, R = Cl, R’ = 4-MeOC6H4)]
- CC50 [33]: 2.35 ± 0.95 µM
- CC50 [34]: 1.95 ± 0.43 µM

- GI50 [35]: 31.6 ± 1.05 µM
- GI50 [36]: 26.6 ± 1.07 µM
- GI50 [37]: 29.1 ± 1.09 µM
- GI50 [38]: 30.6 ± 1.12 µM
SMILES: Cc1ccc(C2=NO[C@@]3(C(=O)Nc4cc(Cl)ccc43)[C@@H]2c2ccccc2)cc1

- Ki [39]: 43.8 µM
- IC50 ([40]; read-out: IC50 against A549): 2.1 µM
- IC50 ([41]; read-out: IC50 against MCF7): 6.8 µM
- IC50 ([42]; read-out: IC50 against HCT116): 1.7 µM
SMILES: O=C(C1=CCC(c2ccc(Br)cc2)C2(S1)C(=O)Nc1ccccc12)c1ccccc1 (stereo not drawn) [150 (R^1 = H, R^2 = Ph, R^3 = 4-BrC6H4)]
- % inhibition, A549 ([40]; at 10 μM): 75.1%
- % inhibition, MCF7 ([41]; at 10 μM): 69.4%
- % inhibition, HCT116 ([42]; at 10 μM): 91.9%

- GI50 [43]: 2 µM
- GI50 [44]: 2.1 ± 0.3 µM
- GI50 [45]: 2.9 ± 0.2 µM
- GI50 [46]: 2.1 µM
SMILES: O=C1Nc2ccc(Br)cc2[C@]12ON=C(c1cccc(Cl)c1)N2c1cccc(Cl)c1 [110 (R^1 = 5-Br, R^2 = 3-Cl, R^3 = 3-Cl)]

SMILES: COc1cc(C(N)=O)ccc1NC(=O)[C@H]1[C@H](c2cccc(Cl)c2F)C2(C(=O)Nc3cc(Cl)ccc32)[C@H](CC(C)(C)C)N1C(=O)OCCOCCOCCOCCOC(=O)N1[C@@H](CC(C)(C)C)[C@@]2(C(=O)Nc3cc(Cl)ccc32)[C@@H](c2cccc(Cl)c2F)[C@@H]1C(=O)Nc1ccc(C(N)=O)cc1OC (stereo partly drawn) [compound 44]
- p53 levels [47]: increase in p53 levels
- MDM2 level [48]: Downregulation of MDM2
